# pIC50: −log10 of the molar value.
# Tested on: up-regulation of ICAM-1 (CD54) by IFNγ in U937 human monocytic cells
# Assay: U937 IFNγ ICAM1 FACS Assay
# Format: cell-based
# Conditions: Homo sapiens, U-937, U937 cells stimulated with IFNγ, ICAM-1 expression by FACS; read-out: IC50, Example 44
# Procedure, shortened: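 Readout was the geometric-mean APC anti-ICAM-1 signal by FACS on live U937 monocytic cells, with % live cells also recorded. Cells were exposed to compounds (8 points, 3-fold dilutions, duplicates) for 30 min at 37 °C before 18–24 h of IFNγ stimulation. EC50 values were computed from the dose curve.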
row,pIC50,SMILES
1,6.30,"NS(=O)(=O)c1cccc(Nc2ncc(F)c(Nc3ccc(-c4cnco4)cc3)n2)c1 [IV-5, N2-(3-Aminosulfonylphenyl)-5-fluoro-N4-[4-(1,3-oxazol-5-yl)phenyl]-2,4-pyrimidinediamine]"
2,6.59,"COc1ccc(Nc2nc(Nc3cccc(S(N)(=O)=O)c3)ncc2Br)cc1Cl [VI-26, N2-(3-aminosulfonylphenyl)-5-bromo-N4-(3-chloro-4-methoxyphenyl)-2,4-pyrimidinediamine]"
3,6.24,"CN1C(=O)CSc2ccc(Nc3nc(Nc4cccc(S(N)(=O)=O)c4)ncc3F)cc21 [VII-49, N2-(3-Aminosulfonylphenyl)-5-fluoro-N4-(4-methyl-3-oxo-benz[1,4]thiazin-6-yl)-2,4-pyrimidinediamine]"
4,6.18,"C#CCOc1ccc(Nc2nc(Nc3ccc(N4CCN(C)CC4)c(S(N)(=O)=O)c3)ncc2F)cc1 [VI-70, N2-[3-Aminosulfonyl-4-(1-methylpiperazin-4-yl)phenyl]-5-fluoro-N4-[4-(prop-2-ynyloxy)phenyl]-2,4-pyrimidinediamine]"
5,5.15,"COc1cc(Nc2nc(Nc3ccc(Cl)c(S(N)(=O)=O)c3)ncc2F)ccc1Cl [VI-11, N2-(3-Aminosulfonyl-4-chlorophenyl)-N4-(4-chloro-3-methoxyphenyl)-5-fluoro-2,4-pyrimidinediamine]"
6,5.14,"Cc1cnc(Nc2ccc(S(N)(=O)=O)cc2)nc1Nc1ccc2c(c1)NC(=O)CO2 [VII-31, N2-(4-Aminosulphonylphenyl)-5-methyl-N4-(3-oxo-benz[1,4]oxazin-6-yl)-2,4-pyrimidinediamine]"
7,5.69,"NS(=O)(=O)c1cccc(Nc2ncc(F)c(Nc3ccc(CCCCO)cc3)n2)c1 [VI-89, N2-(3-Aminosulfonylphenyl)-5-fluoro-N4-[4-(4-hydroxybutyl)phenyl]-2,4-pyrimidinediamine]"
8,6.61,"Cc1cnc(Nc2cccc(S(N)(=O)=O)c2)nc1Nc1ccc2c(c1)N(C)C(=O)CS2 [VII-35, N2-(3-Aminosulphonylphenyl)-5-methyl-N4-(4-methyl-3-oxo-benzo[1,4]thiazin-6-yl)-2,4-pyrimidinediamine]"
9,5.76,"C#CCOc1ccc(Nc2nc(Nc3ccc(C(C)C)c(S(N)(=O)=O)c3)ncc2F)cc1 [VI-63, N2-[3-Aminosulfonyl-4-(2-propyl)phenyl]-5-fluoro-N4-[4-(prop-2-ynyloxy)phenyl]-2,4-pyrimidinediamine]"
10,6.27,"NS(=O)(=O)c1cccc(Nc2ncc(F)c(Nc3ccc(CCCF)cc3)n2)c1 [VI-83, N2-(3-Aminosulfonylphenyl)-5-fluoro-N4-[4-(3-fluoropropyl)phenyl]-2,4-pyrimidinediamine]"
11,6.00,"Cc1ccc(Nc2ncc(F)c(Nc3ccc4ncccc4c3)n2)cc1S(N)(=O)=O [VII-69, N2-(3-Aminosulfonyl-4-methylphenyl)-5-fluoro-N4-(quinolin-6-yl)-2,4-pyrimidinediamine]"
12,5.94,"NS(=O)(=O)c1cccc(Nc2ncc(F)c(Nc3ccc(CCCCF)cc3)n2)c1 [VI-92, N2-(3-Aminosulfonylphenyl)-5-fluoro-N4-[4-(4-fluorobutyl)phenyl]-2,4-pyrimidinediamine]"
13,6.31,"NS(=O)(=O)c1cccc(Nc2ncc(F)c(Nc3ccc(CCCO)cc3)n2)c1 [VI-86, N2-(3-Aminosulfonylphenyl)-5-fluoro-N4-[4-(3-hydroxypropyl)phenyl]-2,4-pyrimidinediamine]"
14,6.09,"N#CCN1C(=O)COc2ccc(Nc3nc(Nc4cccc(S(N)(=O)=O)c4)ncc3F)cc21 [Compound V-7, N2-(3-Aminosulphonylphenyl)-5-fluoro-N4-(3-oxo-4-cyanomethyl-benz[1,4]oxazin-6-yl]-2,4-pyrimidinediamine]"
15,5.68,"CNC(=O)OCc1cccc(Nc2nc(Nc3ccc(C)c(S(N)(=O)=O)c3)ncc2F)c1 [VI-49, N2-(3-Aminosulfonyl-4-methylphenyl)-5-fluoro-N4-[3-(methylaminocarbonyloxymethyl)phenyl]-2,4-pyrimidinediamine]"
16,5.95,"C#CCn1ccc2cc(Nc3nc(Nc4ccc(C)c(S(N)(=O)=O)c4)ncc3F)ccc21 [IX-1, N2-(3-Aminosulfonyl-4-methylphenyl)-5-fluoro-N4-[1-(propyn-3-yl)indol-5-yl]-2,4-pyrimidinediamine]"
17,5.44,"COc1ccc(Nc2nc(Nc3cccc(S(N)(=O)=O)c3)ncc2F)cn1 [VII-6, N2-(3-Aminosulfonylphenyl)-5-fluoro-N4-(2-methoxypyrid-5-yl)-2,4-pyrimidinediamine]"

# From patent US11827628B2, “Compositions and methods for inhibition of the JAK pathway” (Rigel Pharmaceuticals, Inc., priority 2005, dated 2023)
